The conditions of data set [1]: cited from earlier work.
The test system of a further data set is GABAA receptor. Particulars: cited from earlier work.
Data set [2] in a line: In vivo biodistribution in naive male Sprague-Dawley rats. The conditions noted are these: rat; for Time at which regional differentiation remained apparent / Pituitary gland / Thalamus: male, Sprague-Dawley; for Time at which regional differentiation remained apparent / Pituitary gland / Thalamus / Clearance from whole brain after peak uptake: in vivo; for Whole brain uptake, peak: at the time of peak; for Regional differentiation between GABA-rich and GABA-poor regions of the brain: in vivo biodistribution; for Cerebellum / Hippocampus / Pons/Medulla / Pre-frontal cortex / Striatum: lateral tail vein, mean (SD), n = 3; for Pre-frontal cortex: thalmus: ratio. How it is done: Adult male Sprague-Dawley rats (body weight 202±37 g; mean±SD) were injected with between 1 and 5 MBq of [^18F]-Compound 1 via a lateral tail vein. All animals were conscious, but lightly restrained during injection and subsequently housed in short-term metabolism cages. At the appropriate time point; 30 seconds, 2, 10, 30 and 60 minutes post-injection (pi) (n=3 per time point), the animals were sacrificed by cervical dislocation. The brain and peripheral tissues or fluids were sampled post-mortem. Radioactivity in the brain samples was measured using a Wallac gamma counter. Once assayed, the brain samples, along with the remaining organ or tissue samples were assayed using a twin-crystal gamma-counter system (BASIL), with automatic correction for radioactive decay.
The biodistribution protocol described in Example 6 for Compound 1 was used to assess Compound 2.

For `CCOC(=O)c1ncn2c1CN(CC[18F])C(=O)c1cc(F)ccc1-2` [[18F]FEFMZ, [18F]fluoroethylflumazenil], the “Clearance following administration in vivo” value in data set [1] (in vivo) is recorded as “too rapid”.
As to `CN1Cc2c(C(=O)OCC[18F])ncn2-c2ccc(F)cc2C1=O` [[18F]FFMZ, [18F]fluoroflumazenil], in the data set on GABAA receptor (reported in prior art), the “Selective binding to GABAA receptors” value is listed as “high selective binding”. The Brain uptake entry in data set [1] (reported in prior art) is “high”.
On to `CCOC(=O)c1ncn2c1CN(C)C(=O)c1cc(OCC[18F])ccc1-2` [[18F]-Compound 1], for which, in data set [2], the “Time at which regional differentiation remained apparent” value stood at 30 minutes pi; the “Time of peak whole brain uptake” value was 10 minutes pi; the “Whole brain uptake, peak” value turned out to be 0.9%; the “Clearance from whole brain after peak uptake” value is “slow with a decreasing rate”. Besides, the “Regional differentiation between GABA-rich and GABA-poor regions of the brain” value in data set [2] is “good”. Besides, in data set [2] (0.5 min), the Pituitary gland is 0.60 (0.1) % id/g and the Thalamus was 0.30 (0.11) % id/g. Also, in data set [2] (2 min), the Pituitary gland is given as 0.69 (0.13) % id/g and the Thalamus was 0.47 (0.07) % id/g. Further, in data set [2] (10 min), the Pituitary gland is given as 0.55 (0.10) % id/g and the Thalamus was 0.39 (0.05) % id/g. Moreover, in data set [2] (30 min), the Pituitary gland was 0.30 (0.02) % id/g and the Thalamus is reported as 0.24 (0.05) % id/g. In data set [2] (60 min), the Pituitary gland is given as 0.26 (0.08) % id/g and the Thalamus is given as 0.20 (0.07) % id/g. In data set [2] (0.5 min post-injection), the Cerebellum is 0.28 (0.06) % id/g, the Hippocampus is recorded as 0.26 (0.08) % id/g, the Pons/Medulla was 0.23 (0.04) % id/g and the Pre-frontal cortex is recorded as 0.33 (0.1) % id/g. Also, in data set [2] (0.5 min post-injection), the Striatum is 0.26 (0.07) % id/g and the “Pre-frontal cortex: thalmus” value is given as 1.13. Moreover, in data set [2] (2 min post-injection), the Cerebellum is recorded as 0.43 (0.03) % id/g, the Hippocampus is recorded as 0.43 (0.06) % id/g, the Pons/Medulla was 0.34 (0.02) % id/g and the Pre-frontal cortex is on record as 0.57 (0.02) % id/g. Besides, in data set [2] (2 min post-injection), the Striatum was 0.41 (0.04) % id/g and the “Pre-frontal cortex: thalmus” value was 1.23. In data set [2] (10 min post-injection), the Cerebellum is 0.36 (0.05) % id/g, the Hippocampus is listed as 0.43 (0.07) % id/g, the Pons/Medulla was 0.28 (0.05) % id/g and the Pre-frontal cortex is 0.53 (0.09) % id/g. For the same molecule, in data set [2] (10 min post-injection), the Striatum is 0.36 (0.04) % id/g and the “Pre-frontal cortex: thalmus” value is 1.35. Moreover, in data set [2] (30 min post-injection), the Cerebellum was 0.23 (0.04) % id/g, the Hippocampus is given as 0.32 (0.05) % id/g, the Pons/Medulla was 0.18 (0.04) % id/g and the Pre-frontal cortex was 0.35 (0.07) % id/g. Also, in data set [2] (30 min post-injection), the Striatum is 0.21 (0.04) % id/g and the “Pre-frontal cortex: thalmus” value was found to be 1.44. Further, in data set [2] (60 min post-injection), the Cerebellum is given as 0.20 (0.05) % id/g, the Hippocampus is 0.26 (0.07) % id/g, the Pons/Medulla is listed as 0.19 (0.05) % id/g and the Pre-frontal cortex is given as 0.24 (0.06) % id/g. Besides, in data set [2] (60 min post-injection), the Striatum is listed as 0.18 (0.04) % id/g and the “Pre-frontal cortex: thalmus” value came out at 1.21.
Regarding `CN1Cc2c(C(=O)OC(C)(C)C)ncn2-c2ccc(OCC[18F])cc2C1=O` [[18F]-Compound 2], in data set [2], the “Time at which regional differentiation remained apparent” value came out at 10 minutes pi; the “Time of peak whole brain uptake” value is listed as 2 minutes pi; the “Whole brain uptake, peak” value is listed as 0.82%; the “Clearance from whole brain after peak uptake” value is “slow with a decreasing rate”. Also, the “Regional differentiation between GABA-rich and GABA-poor regions of the brain” value in data set [2] is given as “good”. Also, in data set [2] (0.5 min), the Pituitary gland is 0.82 (0.21) % id/g and the Thalamus is reported as 0.67 (0.12) % id/g. In addition, in data set [2] (2 min), the Pituitary gland is recorded as 1.07 (0.19) % id/g and the Thalamus is given as 0.78 (0.20) % id/g. Also, in data set [2] (10 min), the Pituitary gland is 0.69 (0.11) % id/g and the Thalamus is reported as 0.69 (0.12) % id/g. Moreover, in data set [2] (30 min), the Pituitary gland is 0.64 (0.04) % id/g and the Thalamus is listed as 0.62 (0.12) % id/g. In data set [2] (60 min), the Pituitary gland is listed as 0.51 (0.04) % id/g and the Thalamus is on record as 0.49 (0.02) % id/g. In data set [2] (0.5 min post-injection), the Cerebellum is listed as 0.75 (0.10) % id/g, the Hippocampus is 0.63 (0.08) % id/g, the Pons/Medulla is 0.58 (0.09) % id/g and the Pre-frontal cortex is 0.80 (0.05) % id/g. In data set [2] (0.5 min post-injection), the Striatum is 0.63 (0.05) % id/g and the “Pre-frontal cortex: thalmus” value was 1.22. Also, in data set [2] (2 min post-injection), the Cerebellum is on record as 0.82 (0.19) % id/g, the Hippocampus is reported as 0.89 (0.20) % id/g, the Pons/Medulla is given as 0.61 (0.14) % id/g and the Pre-frontal cortex is given as 1.07 (0.29) % id/g. Besides, in data set [2] (2 min post-injection), the Striatum is reported as 0.71 (0.16) % id/g and the “Pre-frontal cortex: thalmus” value is on record as 1.36. Moreover, in data set [2] (10 min post-injection), the Cerebellum was 0.74 (0.08) % id/g, the Hippocampus is given as 0.94 (0.06) % id/g, the Pons/Medulla was 0.56 (0.09) % id/g and the Pre-frontal cortex is reported as 1.04 (0.15) % id/g. Moreover, in data set [2] (10 min post-injection), the Striatum is 0.61 (0.10) % id/g and the “Pre-frontal cortex: thalmus” value is on record as 1.51. Besides, in data set [2] (30 min post-injection), the Cerebellum is 0.59 (0.06) % id/g, the Hippocampus was 0.75 (0.03) % id/g, the Pons/Medulla is given as 0.52 (0.05) % id/g and the Pre-frontal cortex is given as 0.75 (0.06) % id/g. Besides, in data set [2] (30 min post-injection), the Striatum is 0.55 (0.096) % id/g and the “Pre-frontal cortex: thalmus” value is reported as 1.23. In data set [2] (60 min post-injection), the Cerebellum was 0.47 (0.02) % id/g, the Hippocampus is listed as 0.53 (0.01) % id/g, the Pons/Medulla is given as 0.45 (0.02) % id/g and the Pre-frontal cortex is given as 0.51 (0.03) % id/g. In addition, in data set [2] (60 min post-injection), the Striatum is 0.45 (0.02) % id/g and the “Pre-frontal cortex: thalmus” value turned out to be 1.05.
Broadly, the Ki is the dissociation constant of the complex between target and ligand, obtained from inhibition or displacement. As for `CCOC(=O)c1ncn2c1CN(C)C(=O)c1cc([18F])ccc1-2` [[18F]FMZ, [18F]flumazenil], the Ki at GABAA receptor (prior art statement) was approximately 500 pM.

These data come from patent US20120189547A1 (priority 2009, published 2012).
